Assay results as given in patent publication US7419969B2 (Bristol-Myers Squibb Company, priority 2004, dated 2008).

molecular target: T1, HIV-integrase (Human immunodeficiency virus type 1 group M subtype B, UniProt P04585); assay: in-vitro activity against HIV-integrase (HIV Integrase Inhibition, SPA bead assay); type: biochemical; conditions: Table 1; recombinant integrase, activity class
T1 construct: Recombinant integrase (0.26 ng) was incubated with the beads
Experimental: To evaluate in-vitro activity against HIV-integrase, 5 pmole of biotin labeled substrate DNA was bound to 100 μg of Streptavidin coated PVT SPA beads (Amersham Pharmacia Biotech). Recombinant integrase (0.26 ng) was incubated with the beads for 90 min at 37° C. Unbound enzyme was removed by washing the complex followed by addition of inhibitors and […] of P33 labeled target DNA. The reaction was stopped by adding EDTA to a final concentration of 10 mM. Samples were counted in TopCountNXT (Packard) and the CPM was used as a measure of integration. The reaction condition was as described in Engelman, A. and Craigie, R. J. Vitrol. 1996, 69, 5908. The sequences of substrate and target DNA were described in Nucleic Acid Research 1994, 22, 1121.

`Cc1ncnn1-c1cc(F)ccc1CNC(=O)c1nc2n(c(=O)c1O)CCOC21CCOCC1` [Example 49, N-[[4-fluoro-2-(5-methyl-1H-1,2,4-triazol-1-yl)phenyl]methyl]-2,3,5,6,6′, 7-hexahydro-3′-hydroxy-4′-oxo-spiro[4H-pyran-4,9′(4′H)-pyrimido[2,1-c][1,4]oxazine]-2′-carboxamide] and `Cc1ncnn1-c1cc(F)ccc1CNC(=O)c1nc2n(c(=O)c1O)CCOC21CCC1` [Example 57, N-[[4-fluoro-2-(5-methyl-1H-1,2,4-triazol-1-yl)phenyl]methyl]-6′,7′-dihydro-3′-hydroxy-4′-oxo-spiro[cyclobutane-1,9′(4′H)-pyrimido[2,1-c][1,4]oxazine]-2′-carboxamide] fall in the same range of IC50: 1 to 10 nM for the first, 1 to 10 nM for the second.

`O=C(NCc1ccc(F)cc1-n1cncn1)c1nc2n(c(=O)c1O)CCOC21CCOC1` (stereo not shown) [Example 38] and `O=C(NCc1ccccc1-n1cncn1)c1nc2n(c(=O)c1O)CCOC21CCCC1` [Example 33, 6′,7′-dihydro-3′-hydroxy-4′-oxo-N-[[2-(1H-1,2,4-triazol-1-yl)phenyl]methyl]-spiro[cyclopentane-1,9′(4′H)-pyrimido[2,1-c][1,4]oxazine]-2′-carboxamide] fall in the same range of IC50: 1 to 10 nM for the first, 1 to 10 nM for the second.

`O=C(NCc1ccc(F)cc1)c1nc2n(c(=O)c1O)CCCC21CCOCC1` [Example 13, N-[(4-fluorophenyl)methyl]-2,3,5,6,7′,8′-hexahydro-3′-hydroxy-4′-oxo-spiro[4H-pyran-4,9′(6′H)-[4H]pyrido[1,2-a]pyrimidine]-2′-carboxamide] and `O=C(NCc1ccc(F)cc1)c1nc2n(c(=O)c1O)CCCC21CCCC1` [Example 1, N-[(4-fluorophenyl)methyl]-7′,8′-dihydro-3′-hydroxy-4′-oxo-spiro[cyclopentane-1,9′(6′H)-[4H]pyrido[1,2-a]pyrimidine]-2′-carboxamide] fall in the same range of IC50: 1 to 10 nM for the first, 1 to 10 nM for the second.

`CS(=O)(=O)c1cc(F)ccc1CNC(=O)c1nc2n(c(=O)c1O)CCOC21CCC1` [Example 53, N-[[4-fluoro-2-(methylsulfonyl)phenyl]methyl]-6′,7′-dihydro-3′-hydroxy-4′-oxo-spiro[cyclobutane-1,9′(4′H)-pyrimido[2,1-c][1,4]oxazine]-2′-carboxamide] and `CN(C)S(=O)(=O)c1cc(F)ccc1CNC(=O)c1nc2n(c(=O)c1O)CCOC21CCC1` [Example 54, N-[[2-[(dimethylamino)sulfonyl]-4-fluorophenyl]methyl]-6′,7′-dihydro-3′-hydroxy-4′-oxo-spiro[cyclobutane-1,9′(4′H)-pyrimido[2,1-c][1,4]oxazine]-2′-carboxamide] fall in the same range of IC50: 1 to 10 nM for the first, 1 to 10 nM for the second.

`O=C(NCc1ccc(Cl)cc1)c1nc2n(c(=O)c1O)CCOC21CCCC1` [Example 20, N-[(4-chlorophenyl)methyl]-6′,7′-dihydro-3′-hydroxy-4′-oxo-spiro[cyclopentane-1,9′(4′H)-pyrimido[2,1-c][1,4]oxazine]-2′-carboxamide] and `O=C(NCc1ccc(F)cc1)c1nc2n(c(=O)c1O)CCOC21CCCC1` [Example 15, N-[(4-fluorophenyl)methyl]-6′,7′-dihydro-3′-hydroxy-4′-oxo-spiro[cyclopentane-1,9′(4′H)-pyrimido[2,1-c][1,4]oxazine]-2′-carboxamide] fall in the same range of IC50: 1 to 10 nM for the first, 1 to 10 nM for the second.

`CS(=O)(=O)c1cc(F)ccc1CNC(=O)c1nc2n(c(=O)c1O)CCCC21CCC1` [Example 81, N-[[4-fluoro-2-(methylsulfonyl)phenyl]methyl]-7′,8′-dihydro-3′-hydroxy-4′-oxo-spiro[cyclobutane-1,9′(6′H)-[4H]pyrido[1,2-α]pyrimidine]-2′-carboxamide] and `CN(C)S(=O)(=O)c1cc(F)ccc1CNC(=O)c1nc2n(c(=O)c1O)CCCC21CCCC1` [Example 10, N-[[2-[(dimethylamino)sulfonyl]-4-fluorophenyl]methyl]-7′,8′-dihydro-3′-hydroxy-4′-oxo-spiro[cyclopentane-1,9′(6′H)-[4H]pyrido[1,2-α]pyrimidine]-2′-carboxamide] fall in the same range of IC50: 1 to 10 nM for the first, 1 to 10 nM for the second.

Compared with `Cc1cc(CNC(=O)c2nc3n(c(=O)c2O)CCCC32CCCC2)ccc1F` [Example 2, N-[(4-fluoro-3-methylphenyl)methyl]-7′,8′-dihydro-3′-hydroxy-4′-oxo-spiro[cyclopentane-1,9′(6′H)-[4H]pyrido[1,2-a]pyrimidine]-2′-carboxamide], `Cc1ccc(CNC(=O)c2nc3n(c(=O)c2O)CCOC32CCCC2)cc1C` [Example 22, N-[(3,4-dimethylphenyl)methyl]-6′,7′-dihydro-3′-hydroxy-4′-oxo-spiro[cyclopentane-1,9′(4′H)-pyrimido[2,1-c][1,4]oxazine]-2′-carboxamide] is higher in IC50: 1 to 10 nM for the first, 10 to 100 nM for the second.

`Cc1ncnn1-c1cc(F)ccc1CNC(=O)c1nc2n(c(=O)c1O)CCOC21CCCC1` [Example 32, N-[[4-fluoro-2-(5-methyl-1H-1,2,4-triazol-1-yl)phenyl]methyl]-6′,7′-dihydro-3′-hydroxy-4′-oxo-spiro[cyclopentane-1,9′(4′H)-pyrimido[2,1-c][1,4]oxazine]-2′-carboxamide] and `O=C(NCc1ccccc1)c1nc2n(c(=O)c1O)CCOC21CCCC1` [Example 14, N-(phenylmethyl)-6′,7′-dihydro-3′-hydroxy-4′-oxo-spiro[cyclopentane-1,9′(4′H)-pyrimido[2,1-c][1,4]oxazine]-2′-carboxamide] fall in the same range of IC50: 1 to 10 nM for the first, 1 to 10 nM for the second.

`O=C(NCc1ccc(F)cc1)c1nc2n(c(=O)c1O)CCOC21CCNCC1` [Example 88, N-[(4-fluorophenyl)methyl]-6′,7′-dihydro-3′-hydroxy-4′-oxo-spiro[piperidine-4,9′(4′H)-pyrimido[2,1-c][1,4]oxazine]-2′-carboxamide] and `O=C(NCc1ccccc1N1CCCCS1(=O)=O)c1nc2n(c(=O)c1O)CCOC21CCCC1` [Example 35, 6′,7′-dihydro-3′-hydroxy-4′-oxo-N-[[2-(tetrahydro-1,1-dioxido-2H-1,2-thiazin-2-yl)phenyl]methyl]-spiro[cyclopentane-1,9′(4′H)-pyrimido[2,1-c][1,4]oxazine]-2′-carboxamide] fall in the same range of IC50: 10 to 100 nM for the first, 10 to 100 nM for the second.

Compared with `CN(C)S(=O)(=O)c1cc(F)ccc1CNC(=O)c1nc2n(c(=O)c1O)CCC21CCCC1` [Example 86, N-[[2-[(dimethylamino)sulfonyl]-4-fluorophenyl]methyl]-6′,7′-dihydro-3′-hydroxy-4′-oxo-spiro[cyclopentane-1,8′(4′H)-pyrrolo[1,2-α]pyrimidine]-2′-carboxamide], `O=C(NCc1ccc(F)cc1N1CCCCS1(=O)=O)c1nc2n(c(=O)c1O)CCCC21CCCC1` [Example 9, N-[[4-fluoro-2-(tetrahydro-1,1-dioxido-2H-1,2-thiazin-2-yl)phenyl]methyl]-7′,8′-dihydro-3′-hydroxy-4′-oxo-spiro[cyclopentane-1,9′(6′H)-[4H]pyrido[1,2-α]pyrimidine]-2′-carboxamide] is lower in IC50: 10 to 100 nM for the first, 1 to 10 nM for the second. The second is the more potent here.

In the case of `O=C(NCc1ccccc1N1CCCCS1(=O)=O)c1nc2n(c(=O)c1O)CCOC21CCOCC1` [Example 43, N-[[2-(tetrahydro-1,1-dioxido-2H-1,2-thiazin-2-yl)phenyl]methyl]-2,3,5,6,6′,7′-hexahydro-3′-hydroxy-4′-oxo-spiro[4H-pyran-4,9′(4′H)-pyrimido[2,1-c][1,4]oxazine]-2′-carboxamide], the IC50 is reported as 10 to 100 nM.

same assay, conditions: Table 1a; recombinant integrase, activity class

`O=C(NCc1ccc(F)cc1)c1nc2n(c(=O)c1O)CCNC21CCC1` [Example 132, Spiro[cyclobutane-1,9′(6′H)-[4H]pyrazino[1,2-a]pyrimidine]-2′-carboxamide, N-[(4-fluorophenyl)methyl]-7′,8′-dihydro-3′-hydroxy-4′-oxo-] and `CN1CCn2c(nc(C(=O)NCc3ccc(F)cc3)c(O)c2=O)C12CCCCC2` [Example 95, Spiro[cyclohexane-1,9′(6′H)-[4H]pyrazino[1,2-a]pyrimidine]-2′-carboxamide, N-[(4-fluorophenyl)methyl]-7′,8′-dihydro-3′-hydroxy-8′-methyl-4′-oxo-] fall in the same range of IC50: 1 to 10 nM for the first, 1 to 10 nM for the second.

Compared with `O=C(NCc1ccc(F)cc1-n1ccnn1)c1nc2n(c(=O)c1O)CCOC21CCOCC1` [Example 112, Spiro[4H-pyran-4,9′(4′H)-pyrimido[2,1-c][1,4]oxazine]-2′-carboxamide, N-[[4-fluoro-2-(1H-1,2,3-triazol-1-yl)phenyl]methyl]-2,3,5,6,6′,7′-hexahydro-3′-hydroxy-4′-oxo-], `Cc1nnn(-c2cc(F)ccc2CNC(=O)c2nc3n(c(=O)c2O)CCCOC32CCC2)c1C` [Example 107, Spiro[cyclobutane-1,10′(4′H)-[6H]pyrimido[2,1-c][1,4]oxazepine]-2′-carboxamide, N-[[2-(4,5-dimethyl-1H-1,2,3-triazol-1-yl)-4-fluorophenyl]methyl]-7′,8′-dihydro-3′-hydroxy-4′-oxo-] is higher in IC50: 1 to 10 nM for the first, 10 to 100 nM for the second. The first is the more potent here.

`O=C(NCc1ccccc1N1CCOC1=O)c1nc2n(c(=O)c1O)CCOC21CCC1` [Example 126, Spiro[cyclobutane-1,9′(4′H)-pyrimido[2,1-c][1,4]oxazine]-2′-carboxamide, 6′,7′-dihydro-3′-hydroxy-4′-oxo-N-[[2-(2-oxo-3-oxazolidinyl)phenyl]methyl]-] and `O=C(NCc1ccc(F)cc1-n1cncn1)c1nc2n(c(=O)c1O)CCNC21CCC1` [Example 131] fall in the same range of IC50: 1 to 10 nM for the first, 1 to 10 nM for the second.

With `Cc1ncnn1-c1cc(F)ccc1CNC(=O)c1nc2n(c(=O)c1O)CCN(C)C21CCC1` [Example 100, Spiro[cyclobutane-1,9′(6′H)-[4H]pyrazino[1,2-a]pyrimidine]-2′-carboxamide, N-[[4-fluoro-2-(5-methyl-1H-1,2,4-triazol-1-yl)phenyl]methyl]-7′,8′-dihydro-3′-hydroxy-8′-methyl-4′-oxo-] the IC50 was 10 to 100 nM.
